Reference: ChEMBL document CHEMBL1201862, “PubChem BioAssay data set” (2004)
Counter-ions that a name gives are not always drawn.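 Step 1: Grow cells in 96-well plates. Step 2: Expose to compound for 48 hours at 5 concentrations. Step 3: Interpolate endpoints linearly; if unreached, use highest concentration. GI50 is the concentration that inhibits growth by half.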 Active and inactive are the calls of the source. Rule as the data show it: active = GI50 up to about 1.1 µM and inactive = higher.

Experiments:
Assay in all cases: inhibition of tumour cell growth, NCI panel, 48 h
OVCAR-8 = tested on: OVCAR-8
Malme-3M = tested on: Malme-3M
K562 = tested on: K562
T47D = tested on: T47D
SF-539 = tested on: SF-539
KM12 = tested on: KM12
MOLT-4 = tested on: MOLT-4
MDA-MB-231 = tested on: MDA-MB-231
MCF7 = tested on: MCF7
SK-MEL-28 = tested on: SK-MEL-28
HOP-62 = tested on: HOP-62
NCI/ADR-RES = tested on: NCI/ADR-RES
NCI-H226 = tested on: NCI-H226
M14 = tested on: M14
CAKI-1 = tested on: CAKI-1
UACC-257 = tested on: UACC-257
BT-549 = tested on: BT-549
UO-31 = tested on: UO-31
UACC-62 = tested on: UACC-62
HCT-15 = tested on: HCT-15
DU-145 = tested on: DU-145
LOX IMVI = tested on: LOX IMVI
A498 = tested on: A498
OVCAR-3 = tested on: OVCAR-3
HCT-116 = tested on: HCT-116
NCI-H23 = tested on: NCI-H23
PC-3 = tested on: PC-3
MDA-MB-435 = tested on: MDA-MB-435
SK-MEL-2 = tested on: SK-MEL-2
EKVX = tested on: EKVX
U-251 = tested on: U-251
CCRF-CEM = tested on: CCRF-CEM
SW-620 = tested on: SW-620
COLO 205 = tested on: COLO 205
HOP-92 = tested on: HOP-92
OVCAR-5 = tested on: OVCAR-5
HL-60 = tested on: HL-60
SNB-19 = tested on: SNB-19
786-0 = tested on: 786-0
IGROV-1 = tested on: IGROV-1
NCI-H460 = tested on: NCI-H460
NCI-H522 = tested on: NCI-H522
RXF 393 = tested on: RXF 393
A549 = tested on: A549
SF-268 = tested on: SF-268
MDA-N = tested on: MDA-N
OVCAR-4 = tested on: OVCAR-4
RPMI-8226 = tested on: RPMI-8226
SF-295 = tested on: SF-295
SK-OV-3 = tested on: SK-OV-3
TK-10 = tested on: TK-10
ACHN = tested on: ACHN
SN12C = tested on: SN12C
HCC 2998 = tested on: HCC 2998
SK-MEL-5 = tested on: SK-MEL-5
HT-29 = tested on: HT-29
SR = tested on: SR
SNB-75 = tested on: SNB-75
Hs-578T = tested on: Hs-578T

COC(=O)/C=C1/CCC(C)(C(=O)NS(=O)(=O)c2ccc(C)cc2)C1(C)C (stereo not given)
GI50 (OVCAR-8): > 100 µM (inactive) | GI50 (Malme-3M): > 100 µM (inactive) | GI50 (K562): > 100 µM (inactive) | GI50 (T47D): > 100 µM (inactive) | GI50 (SF-539): > 100 µM (inactive) | GI50 (KM12): > 100 µM (inactive) | GI50 (MOLT-4): > 100 µM (inactive) | GI50 (MDA-MB-231): > 100 µM (inactive) | GI50 (MCF7): > 100 µM (inactive) | GI50 (SK-MEL-28): > 100 µM (inactive) | GI50 (HOP-62): > 100 µM (inactive) | GI50 (NCI/ADR-RES): > 100 µM (inactive) | GI50 (NCI-H226): > 100 µM (inactive) | GI50 (M14): > 100 µM (inactive) | GI50 (CAKI-1): > 100 µM (inactive) | GI50 (UACC-257): > 100 µM (inactive) | GI50 (BT-549): > 100 µM (inactive) | GI50 (UO-31): > 100 µM (inactive) | GI50 (UACC-62): > 100 µM (inactive) | GI50 (HCT-15): > 100 µM | GI50 (DU-145): > 100 µM (inactive) | GI50 (LOX IMVI): > 100 µM (inactive) | GI50 (A498): > 100 µM (inactive) | GI50 (OVCAR-3): > 100 µM (inactive) | GI50 (HCT-116): > 100 µM (inactive) | GI50 (NCI-H23): > 100 µM (inactive) | GI50 (PC-3): > 100 µM (inactive) | GI50 (MDA-MB-435): > 100 µM (inactive) | GI50 (SK-MEL-2): > 100 µM (inactive) | GI50 (EKVX): > 100 µM (inactive) | GI50 (U-251): > 100 µM (inactive) | GI50 (CCRF-CEM): > 100 µM (inactive) | GI50 (SW-620): > 100 µM (inactive) | GI50 (COLO 205): > 100 µM (inactive) | GI50 (HOP-92): > 100 µM (inactive) | GI50 (OVCAR-5): > 100 µM (inactive) | GI50 (HL-60): > 100 µM (inactive) | GI50 (SNB-19): > 100 µM (inactive) | GI50 (786-0): > 100 µM (inactive) | GI50 (IGROV-1): > 100 µM (inactive) | GI50 (NCI-H460): > 100 µM (inactive) | GI50 (NCI-H522): > 100 µM (inactive) | GI50 (RXF 393): > 100 µM (inactive) | GI50 (A549): > 100 µM (inactive) | GI50 (SF-268): > 100 µM (inactive) | GI50 (MDA-N): > 100 µM (inactive) | GI50 (OVCAR-4): > 100 µM (inactive) | GI50 (RPMI-8226): > 100 µM (inactive) | GI50 (SF-295): > 100 µM (inactive) | GI50 (SK-OV-3): > 100 µM (inactive) | GI50 (TK-10): > 100 µM (inactive) | GI50 (ACHN): > 100 µM (inactive) | GI50 (SN12C): > 100 µM (inactive) | GI50 (HCC 2998): > 100 µM (inactive) | GI50 (SK-MEL-5): > 100 µM (inactive)

NCCCNCCCCNCCCN [SPERMINE TETRAHYDROCHLORIDE]
GI50 (HT-29): 15.6 µM (inactive) | GI50 (OVCAR-8): 34.3 µM (inactive) | GI50 (Malme-3M): 93.1 µM (inactive) | GI50 (K562): 2.33 µM (inactive) | GI50 (T47D): 2.36 µM (inactive) | GI50 (SF-539): 8.83 µM (inactive) | GI50 (KM12): > 100 µM (inactive) | GI50 (MOLT-4): 4.53 µM (inactive) | GI50 (MDA-MB-231): > 43.6 µM (inactive) | GI50 (MCF7): 2.79 µM (inactive) | GI50 (HOP-62): > 100 µM (inactive) | GI50 (NCI/ADR-RES): 44.6 µM (inactive) | GI50 (NCI-H226): > 100 µM (inactive) | GI50 (M14): 9.66 µM (inactive) | GI50 (CAKI-1): 5.97 µM (inactive) | GI50 (UACC-257): > 71.1 µM (inactive) | GI50 (UO-31): 2.23 µM (inactive) | GI50 (UACC-62): > 100 µM (inactive) | GI50 (HCT-15): 2.67 µM | GI50 (DU-145): 10.6 µM (inactive) | GI50 (LOX IMVI): 8.11 µM (inactive) | GI50 (A498): > 100 µM (inactive) | GI50 (HCT-116): 2.73 µM (inactive) | GI50 (NCI-H23): 67 µM (inactive) | GI50 (PC-3): > 100 µM (inactive) | GI50 (MDA-MB-435): > 41.2 µM (inactive) | GI50 (SK-MEL-2): > 100 µM (inactive) | GI50 (EKVX): 17.8 µM (inactive) | GI50 (U-251): > 42 µM (inactive) | GI50 (CCRF-CEM): 3.67 µM (inactive) | GI50 (SW-620): 3.66 µM (inactive) | GI50 (COLO 205): 4.67 µM (inactive) | GI50 (HOP-92): 1.93 µM (inactive) | GI50 (OVCAR-5): > 100 µM (inactive) | GI50 (SR): 3.74 µM (inactive) | GI50 (SNB-75): > 100 µM (inactive) | GI50 (HL-60): 4.26 µM (inactive) | GI50 (Hs-578T): 11.9 µM (inactive) | GI50 (SNB-19): > 100 µM (inactive) | GI50 (786-0): 1.46 µM (inactive) | GI50 (IGROV-1): 13.2 µM (inactive) | GI50 (NCI-H460): > 100 µM (inactive) | GI50 (NCI-H522): 0.374 µM (active) | GI50 (RXF 393): 14.1 µM (inactive) | GI50 (A549): > 100 µM (inactive) | GI50 (SF-268): > 42.7 µM (inactive) | GI50 (MDA-N): 15.2 µM (inactive) | GI50 (RPMI-8226): 0.284 µM (active) | GI50 (SF-295): > 100 µM (inactive) | GI50 (SK-OV-3): > 38.7 µM (inactive) | GI50 (TK-10): 6.62 µM (inactive) | GI50 (ACHN): 4.12 µM (inactive) | GI50 (SN12C): 4.41 µM (inactive) | GI50 (HCC 2998): > 48.5 µM (inactive) | GI50 (SK-MEL-5): > 57.9 µM (inactive)
